Results on two substances are retold here after patent publication US10822318B2, “Lactone-based probes and methods of use thereof” (REGENTS OF THE UNIVERSITY OF MINNESOTA, priority 2017, dated 2020).

Experiment [1] has as its system PBPs. Nature of the experiment: Gel-based analysis of β-lactone probes applied to Bacillus subtilis PY79 cells. The conditions noted are these: B. subtilis PY79 cells, probe 5 μg/ml. Type of experiment: cell-based. The procedure:
Bacillus subtilis strain PY79, was grown in Luria Bertani (LB) medium in 100×17 mm tubes by incubation at 37° C., shaking at 200 rpm. For labeling experiments, overnight cultures were diluted to OD600=0.01-0.05 and grown as above. Samples with OD600=0.35-0.40 were utilized in labeling experiments conducted as previously described (Kocaoglu, O, et al. (2013) Curr Protoc Chem Biol 5, 239), and summarized as follows: Cell pellets from 1.0 ml of B. subtilis cultures were harvested by centrifugation (8,000×g for 2 min at RT) and washed with phosphate buffered saline (PBS; pH 7.4). […] The protein concentration was measured by NanoDrop 1000 Spectrophotometer (Thermo Scientific) or NanoPhotometer P330 (IMPLEN). […] The protein bands were separated by gel electrophoresis for 1.5 h at 180 V, 400 mA, 60 W. The gel was rinsed with distilled water three times before fluorescence scanning (method description for FIGS. 10a and 10b). […]
(§1) After SDS-PAGE, labeled proteins were visualized at 50-μm resolution in gels using a Typhoon 9210 gel scanner (Amersham Biosciences) with 580-nm bandpass filter for TAMRA, 526-nm short-pass filter for fluorescein and BODIPY FL, and 670-nm bandpass filter for BODIPY 650/665. All gel images were analyzed using ImageJ software (National Institutes of Health). […]

Experiment [2] relates to PBPs. Nature of the experiment: Gel-based analysis of PBP labeling by β-lactone probes in S. pneumoniae cells. The conditions noted are these: S. pneumoniae whole cells, probe 5 μg/ml, 20 min. Type of experiment: cell-based. How it is done:
Strain IU1945, an unencapsulated derivative of serotype 2 S. pneumoniae strain D39, was grown statically in brain heart infusion (BHI) medium in 100×17 mm tubes by incubation in an atmosphere of 5% CO2 at 37° C. to an OD620 of ˜0.2. For labeling experiments, overnight cultures that were still in exponential phase (OD620=0.1-0.4) were diluted to OD620=0.002-0.004 and grown as above. Samples with OD620=0.15-0.20 were utilized in labeling experiments conducted as previously described (Kocaoglu, O, et al. (2013) Curr Protoc Chem Biol 5, 239), and summarized as follows: Cell pellets from 1.5 ml of S. pneumoniae cultures were harvested by centrifugation (16,100×g for 2 min at RT) and washed with phosphate buffered saline (PBS; pH 7.4). […] The protein concentration was measured by NanoDrop 1000 Spectrophotometer (Thermo Scientific) or NanoPhotometer P330 (IMPLEN). […] The protein bands were separated by gel electrophoresis for 1.5 h at 180 V, 400 mA, 60 W. The gel was rinsed with distilled water three times before fluorescence scanning. […]
as §1

In the case of “(2S,3R)-β-lactone-L-Phe-fluorescein [Probe 7FL]”, the “PBPs labeled (gel-based labeling profile)” value was “comparable to the TAMRA probes” in experiment [1]; “only PBP1b and PBP2x” in experiment [2].
Take “(2S, 3R)-β-lactone-D-Phe-TAMRA [Probe 8T]”: the “PBPs labeled (gel-based labeling profile)” value in experiment [1] is “PBP1, PBP2b and PBP5”; in experiment [2], “PBP1b, PBP2x and PBP2b”.
